Experimental data published in PMC3750009, “Non-peptidic Cruzain Inhibitors with Trypanocidal Activity Discovered by Virtual Screening and In Vitro Assay” (PLoS Neglected Tropical Diseases, 2013).
Where two headings read alike, the source gives them in different places.

Tests used:
[1] = tested on: Spleen cells from C57BL/6 mice; experiment: mammalian cell cytotoxicity, propidium iodide flow cytometry; format: cell-based; settings: for cytotoxicity ratio (IC50(cyto)/IC50)(T. cruzi): spleen cell IC50 over T. cruzi IC50; for IC50: mouse spleen cells, 24 h, read-out: Cytotoxic IC50
Protocol: (§1) Mammalian cell cytotoxicity was evaluated using the protocol previously reported. Spleen cells from C57BL/6 mice were isolated by mechanical dissociation, followed by incubation for 5 min with red blood cell lysis buffer (one part of 0.17 M Tris–HCl [pH 7.5] and nine parts of 0.16 M ammonium chloride). The cells were washed and suspended in RPMI 1640 medium (Gibco-BRL Life Technologies, Grand Island, NY) supplemented with 10% fetal bovine serum (Life Technologies Inc., Bethesda, MD) and antibiotics (Sigma). The cell suspension was cultured in flat-bottom 96-well plates at 5×10^5 cells per well with different concentrations of the tested compounds and incubated at 37°C in a humidified atmosphere of 5% CO2 for 24 h. Tween 20 at 0.5% was used as cell death positive control. To analyze cytotoxicity, cells were harvested, incubated with 10 µg mL^−1 propidium iodide (Sigma) and after 15 min data were acquired using a FACSCantoII (Becton-Dickinson Immunocytometry System Inc., San Jose, CA, USA). Data analysis was performed using FlowJo software (Ashland, OR, USA). The range of concentrations used for assaying cytotoxicity was 250, 125, 62.5, 31.25, 15.6, 7.8, 3.9, and 1.95 (µM).

[2] = as above; format: cell-based, mice; settings: C57BL/6, mouse, primary spleen cells, mouse spleen cells, 24 h; read-out: Cytotoxic IC50
Protocol: as §1

[3] = tested on: T. cruzi Tulahuen lacZ strain; experiment: in vitro trypanocidal activity, infected LLC-MK2 cells, CPRG readout; format: cell-based, Trypanosoma cruzi; settings: for IC50: Trypanosoma cruzi
Protocol: In vitro trypanocidal activity of the compounds was evaluated against amastigote forms of Tulahuen strain that was genetically modified to express β-galactosidase gene from E. coli (lacZ). A monkey kidney cell strain (LLC-MK2 - ATCC) was resuspended in RPMI medium without phenol red (Gibco-BRL Life Technologies, Grand Island, NY) containing 10% fetal bovine serum (Life Technologies Inc., Bethesda, MD) and antibiotics (Sigma Chemical Co., St. Louis) at 2×10^3 cells/well and were cultured in 96-well plates for 24 h. The cells were infected with 1×10^4 trypomastigote forms of T. cruzi Tulahuen strain, and after 24 h compounds were added with different concentrations (250, 125, 62.5, 31.25, 15.6, 7.8, 3.9 and 1.95 µM). After 4 days of culture, 50 µL of PBS containing 0.5% of Triton X-100 and 100 µM Chlorophenol Red-β-D-galactoside (CPRG - Sigma) were added. Plates were incubated at 37°C for 4 h and absorbance was read at 570 nm. Benznidazole (N-benzyl-2-nitro-1-imidazolacetamide), in the same concentrations as above was used as a reference trypanocidal drug (positive control), [41].

Chagas disease [4] = tested on: Chagas disease; parameters: method as in PMID 19900395; settings: acute phase ref 5; cited from earlier work
Chagas disease [5] = tested on: Chagas disease; parameters: method as in PMID 19620707; settings: mice and dogs ref 13; cited from earlier work
[6] = parameters: method as in PMID 19620707; settings: pre-clinical trials ref 13; cited from earlier work
cruzain [7] = molecular target: T1, cruzain (Trypanosoma cruzi, UniProt P25779); experiment: cruzain affinity constant (Ki) and mechanism determination, Michaelis-Menten curves; format: biochemical; settings: pH 6.3, 0.01% Triton X-100, inhibitor 30, 50 and 70 µM
T1 construct: Recombinant cruzain enzyme was expressed and purified as previously described; made in house
Protocol: (§2) Recombinant cruzain enzyme was expressed and purified as previously described. The activity of the cruzain enzyme was measured and quantified through active-site titration with the irreversible inhibitor E-64, as described previously. Cathepsin L enzyme and all reagents used for buffer preparation were purchased from Sigma-Aldrich (St. Louis, MO, USA). The compounds screened against the enzymes were purchased from Enamine (Kiev, Ukraine), Chemdiv (San Diego, CA, USA), Asinex (Moscow, Russia) and IBScreen (Moscow, Russia) and had more than 95%purity, according to these suppliers. All experiments were carried out with freshly made solutions.
(§3) The activity of cruzain was measured in 100 mM phosphate buffer, 100 mM NaCl, 10 mM EDTA, DMSO (5.0% v/v), Triton X-100 (0.01% v/v) and 5.0 mM DTT at pH 6.3. The activity of cathepsin L was measured in 100 mM sodium acetate buffer, 100 mM NaCl, 10 mM EDTA, DMSO (5.0% v/v), Triton X-100 (0.01% v/v) and 5.0 mM DTT at pH 5.5. […]
(§4) The Michaelis-Menten curves were determined in the absence and presence of 30, 50 and 70 µM respectively of each inhibitor. […] The reaction was started and monitored as described above. The mechanisms of inhibition and K i values were determined using the kinetic module of SigmaPlot 10.0 by adjusting the velocities into the competitive, non-competitive and uncompetitive modes. […]

cruzain [8] = molecular target: T1, cruzain; experiment: cruzain enzyme assay, IC50 determination (Z-FR-MCA fluorescence); format: biochemical; settings: for IC50: Neq42 analogs, SAR, unit inferred, read-out: IC50, cruzain inhibition (Figure 6)
Protocol: as §2
The activity of cruzain was measured in 100 mM phosphate buffer, 100 mM NaCl, 10 mM EDTA, DMSO (5.0% v/v), Triton X-100 (0.01% v/v) and 5.0 mM DTT at pH 6.3. The activity of cathepsin L was measured in 100 mM sodium acetate buffer, 100 mM NaCl, 10 mM EDTA, DMSO (5.0% v/v), Triton X-100 (0.01% v/v) and 5.0 mM DTT at pH 5.5. Both assays were carried out with 2 nM of the respective enzymes and 2 µM of the substrate Z-FR-MCA.
The reaction started by the addition of the substrate Z-FR-MCA was monitored by recording the emission at wavelength 460 nm while exciting at 360 nm. Fluorescence was measured using a Synergy HT fluorimeter microplate reader (Biotek). The percentage of inhibition was calculated according to following equation: [drawing 1] where vi and v0 are the initial velocities determined in presence and absence of inhibitors, respectively. The activity of enzyme in the presence of inhibitors was measured in 11 different concentrations in order to obtain the dose-response curves, which were analyzed using the Origin 7.0 program to determine the IC50 values. All experiments were repeated at least in duplicate.

cathepsin L [9] = molecular target: T2, cathepsin L (Homo sapiens, UniProt P07711); experiment: cathepsin L enzyme assay, IC50 determination (Z-FR-MCA fluorescence); format: biochemical; settings: pH 5.5, 0.01% Triton X-100, 2 nM enzyme, 2 µM Z-FR-MCA
T2 construct: Cathepsin L enzyme and all reagents used for buffer preparation were purchased from Sigma-Aldrich; purchased Sigma-Aldrich (St. Louis, MO, USA)
Protocol: as §2, §3
The reaction started by the addition of the substrate Z-FR-MCA was monitored by recording the emission at wavelength 460 nm while exciting at 360 nm. Fluorescence was measured using a Synergy HT fluorimeter microplate reader (Biotek). The percentage of inhibition was calculated according to following equation: [drawing 1] where vi and v0 are the initial velocities determined in presence and absence of inhibitors, respectively. […]

cathepsin L [10] = molecular target: T2, cathepsin L; experiment: cathepsin L affinity constant (Ki) determination, Michaelis-Menten curves; format: biochemical; settings: pH 5.5, 0.01% Triton X-100, inhibitor 30, 50 and 70 µM
Protocol: as §2, §3, §4

[11] = LLC-MK2, 96 h, Tulahuen lacZ strain, 4 days of culture, read-out: Trypanocidal activity IC50
[12] = LLC-MK2, Tulahuen lacZ strain, read-out: trypanocidal pIC50 (converted)
[13] = TULAHUEN, LLC-MK2, average for compounds Neq165, Neq172, Neq176 and Neq177, read-out: trypanocidal pIC50 on average (converted)

T1 sequence (P25779 123-337 limits assumed): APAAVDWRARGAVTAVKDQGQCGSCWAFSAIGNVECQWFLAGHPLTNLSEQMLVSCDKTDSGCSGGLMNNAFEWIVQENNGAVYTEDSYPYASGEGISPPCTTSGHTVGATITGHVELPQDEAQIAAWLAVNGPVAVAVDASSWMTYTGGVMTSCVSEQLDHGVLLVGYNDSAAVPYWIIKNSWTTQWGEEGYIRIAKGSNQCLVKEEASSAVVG
T2 sequence (P07711 114-333): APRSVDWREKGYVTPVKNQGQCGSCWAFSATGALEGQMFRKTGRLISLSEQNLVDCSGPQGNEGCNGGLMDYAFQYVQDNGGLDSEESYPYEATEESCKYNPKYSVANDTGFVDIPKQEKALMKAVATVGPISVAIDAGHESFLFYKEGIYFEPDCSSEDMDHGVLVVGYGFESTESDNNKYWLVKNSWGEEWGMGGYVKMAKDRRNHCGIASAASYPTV

Compound | IC50 at 24 h [2] [µM] | IC50 [3, 11] [µM] | IC50 (cruzain [8]) [µM] | IC50 [3, 13] [µM] | other results
O=C(Cn1ccnc1[N+](=O)[O-])NCc1ccccc1 [Bz, N-benzyl-2-nitro-1-imidazolacetamide, reference compound] | > 500 | 64.3 ± 12.3 |  |  | cytotoxicity ratio (IC50(cyto)/IC50)(T. cruzi) [1]: 8; IC50 [3, 12]: 63.1 µM; successful cure (Chagas disease [4]): up to 80%
CN1CCN(C(=O)N[C@@H](Cc2ccccc2)C(=O)N[C@H](/C=C/S(=O)(=O)c2ccccc2)CCc2ccccc2)CC1 [Compound K11777] |  |  |  |  | efficacy in models of acute and chronic Chagas disease (Chagas disease [5]): demonstrated efficacy; mutagenicity [6]: non-mutagenic; pharmacokinetic profile [6]: acceptable pharmacokinetic profile; tolerability [6]: well tolerated
NC(=O)c1ccsc1NC(=O)CSc1nnc(CN2CCCCC2)n1Cc1ccccc1 [Neq42] | 50 | 10.6 ± 0.1 | 21.6 ± 5.4 |  | IC50 [1]: 49.9 ± 2.7 µM; cytotoxicity ratio (IC50(cyto)/IC50)(T. cruzi) [1]: 5; IC50 [3, 12]: 12.6 µM; preliminary trypanocidal activity ([3]; single dose of 250 µM, Tulahuen lacZ strain): active; Ki (cruzain [7]): 18.5 ± 5.5 µM; IC50 (cathepsin L [9]): 35.1 ± 11 µM; Ki (cathepsin L [10]): 35.6 ± 8.2 µM
Cc1nnc(SCC(=O)Nc2sccc2C(N)=O)n1Cc1ccccc1 [Neq165] |  | 153.4 ± 0.6 | 31.3 ± 1.2 | ~158 | 
NC(=O)c1ccsc1NC(=O)COC(=O)[C@@H](Cc1ccccc1)NC(=O)OCc1ccccc1 [Neq172] | 23 | 166 ± 12.9 | 73.1 ± 4.9 | ~158 | IC50 [1]: 23.1 ± 2.7 µM
NC(=O)c1ccsc1NC(=O)CSc1nnc[nH]1 [Neq176] | > 250 | 108 ± 52.2 | 68.5 ± 3 | ~158 | ligand efficiency (LE) (cruzain [8]; from cruzain potency): 0.33 kcal mol^-1 atom^-1
CC(Sc1nncn1-c1ccccc1)C(=O)Nc1sccc1C(N)=O (stereo not drawn) [Neq177] | > 250 | 137 ± 14.4 | 48.9 ± 10 | ~158 | 
